Measured values reported in patent publication US20230286970A1, “NOVEL OXADIAZOLE-BASED SELECTIVE HDAC6 INHIBITORS” (ITALFARMACO S.P.A., priority 2020, published 2023).

Tests used:
[1] = Stability to Phase I metabolism in rat S9 liver fraction; settings: after 90 minutes, 37° C.
Procedure: Test compounds were incubated in rat and human liver S9 fraction at 37° C. up to 90 minutes in order to evaluate their stability to Phase I metabolism by hepatic enzymes. Each test compound was incubated at μM concentration (50 μM when the samples were analysed by UV/HPLC, 1 or 2 μM when the samples were analysed by LC-MS/MS) with S9 fraction (protein content 2 mg/m L) in 100 mM phosphate buffer (pH 7.4), 3.3 mM MgCl2 and 1.3 mM NADPH for 0, 10, 30, 60 and 90 minutes at 37° C. in a thermostated oscillating bath. The reaction was stopped placing samples on ice bath and adding acidified acetonitrile. After centrifugation (10 minutes at 14000 rpm) an aliquot of the supernatant was diluted with water, filtered with 0.45 μm regenerated cellulose syringe filters and injected in HPLC-UV or in LC-MS/MS. The percentage of the remaining amount at the various incubation times with respect to the initial amount were calculated.

[2] = Stability in human plasma; settings: after 4 hours, 37° C.
[3] = Stability to Phase I metabolism in human S9 liver fraction; settings: after 90 minutes, 37° C.
HDAC11 = HDAC11 (Homo sapiens (Human), UniProt Q96DB2); test: Enzymatic screening, HDAC11 inhibition; format: biochemical
HDAC11, sequence (Q96DB2 whole entry, canonical isoform): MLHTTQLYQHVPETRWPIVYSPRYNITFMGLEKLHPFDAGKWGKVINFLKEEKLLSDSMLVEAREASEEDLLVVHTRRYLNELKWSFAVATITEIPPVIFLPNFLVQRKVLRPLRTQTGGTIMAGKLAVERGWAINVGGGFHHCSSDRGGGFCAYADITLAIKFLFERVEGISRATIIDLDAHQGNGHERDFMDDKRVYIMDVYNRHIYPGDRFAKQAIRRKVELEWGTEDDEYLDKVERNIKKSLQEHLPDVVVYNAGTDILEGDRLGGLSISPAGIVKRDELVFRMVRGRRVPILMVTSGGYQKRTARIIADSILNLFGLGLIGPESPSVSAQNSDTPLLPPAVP
Procedure: (§1) For each test compound, 100× concentrated DMSO solutions at 8 doses were prepared and then diluted in assay buffer (25 mM Tris-HCl, pH 8, 130 mM NaCl, 0.05% Tween-20, 10% Glycerol) to obtain 5× concentrated solutions in relation to the final concentrations (typical final concentration range—6.4-200000 nM or 0.18-50000 nM, final DMSO content—1%). Then 10 μL solution of each test compound concentration were placed on a 96-well plate in triplicate and 15 μL of 3.33× concentrated enzyme solution in the assay buffer containing 3.33× concentrated BSA (final BSA concentration—2 mg/mL for HDAC4, HDAC5 and HDAC9 or 1 mg/mL for other isoforms) and in the case of HDAC6-3.33× concentrated TCEP (final TCEP concentration—200 μM) were added to each well. After a period of preincubation (incubation times and temperatures vary for different isoforms and are shown in table 1) 25 μL of solution containing the substrate were added. As substrate, FLUOR DE LYS® deacetylase substrate (Enzo Life Sciences, cat: BML-KI104, FdL), FLUOR DE LYS®-Green substrate (Enzo Life Sciences, cat: BML-KI572, FdL_G) or Boc-Lys(Tfa)-AMC (Bachem, cat: 4060676.005, Tfal)—2× concentrated solution in assay buffer were used. Following a reaction period (reaction times and temperatures vary for different isoforms and are reported in Table 1), 50 μL of the development solution consisting of concentrate FLUOR DE LYS® developer I (Enzo Life Sciences, ca: BML-KI105), diluted 200 times in buffer (50 mM Tris-HCl, pH 8, 137 mM NaCl, 2.7 mM KCl, 1 mM MgCl2) plus 2 μM TSA was added and, after 25 minutes at room temperature in the dark, using the Victor 1420 Multilabel Counter Perkin Elmer Wallac instrument, the fluorescence reading was carried out.

HDAC8 = HDAC8 (Homo sapiens (Human), UniProt Q9BY41); test: Enzymatic screening, HDAC8 inhibition; format: biochemical
HDAC8, sequence (Q9BY41 whole entry): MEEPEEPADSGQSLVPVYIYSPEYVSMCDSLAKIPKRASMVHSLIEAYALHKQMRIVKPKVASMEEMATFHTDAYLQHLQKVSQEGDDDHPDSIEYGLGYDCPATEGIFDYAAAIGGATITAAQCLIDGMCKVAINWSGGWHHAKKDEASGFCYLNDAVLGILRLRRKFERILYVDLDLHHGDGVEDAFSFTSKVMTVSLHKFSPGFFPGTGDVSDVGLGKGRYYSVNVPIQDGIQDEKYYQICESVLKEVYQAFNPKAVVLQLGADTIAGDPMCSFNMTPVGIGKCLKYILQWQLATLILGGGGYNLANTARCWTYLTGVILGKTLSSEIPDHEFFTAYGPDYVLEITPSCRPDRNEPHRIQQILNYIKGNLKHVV
Procedure: as §1

recombinant human HDAC1 = recombinant human HDAC1 (Homo sapiens (Human), UniProt Q13547); test: Enzymatic screening, HDAC1 inhibition (fluorogenic FdL_G substrate); format: biochemical
recombinant human HDAC1, sequence (Q13547 whole entry): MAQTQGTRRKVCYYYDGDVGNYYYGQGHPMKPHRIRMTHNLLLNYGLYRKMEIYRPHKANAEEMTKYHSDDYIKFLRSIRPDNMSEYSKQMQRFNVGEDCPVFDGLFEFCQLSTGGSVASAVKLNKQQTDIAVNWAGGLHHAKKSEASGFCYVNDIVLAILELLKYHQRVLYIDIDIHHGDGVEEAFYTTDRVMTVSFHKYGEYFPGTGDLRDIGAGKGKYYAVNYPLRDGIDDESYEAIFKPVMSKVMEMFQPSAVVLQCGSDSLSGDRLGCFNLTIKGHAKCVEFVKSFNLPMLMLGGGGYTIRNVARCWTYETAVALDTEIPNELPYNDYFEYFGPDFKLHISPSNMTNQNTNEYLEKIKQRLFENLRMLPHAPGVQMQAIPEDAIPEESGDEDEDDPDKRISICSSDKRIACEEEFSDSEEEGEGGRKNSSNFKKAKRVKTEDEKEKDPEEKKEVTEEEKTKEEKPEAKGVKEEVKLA
In short: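 Recombinant human HDAC1 inhibition was measured fluorometrically using the FLUOR DE LYS-Green (FdL_G) substrate. Compounds at 8 doses (1% DMSO final) in Tris-HCl pH 8 buffer with NaCl, Tween-20 and glycerol were preincubated in triplicate with enzyme and 1 mg/mL BSA, then given substrate. Developer I plus 2 μM TSA was added, and fluorescence read after 25 minutes in the dark.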

Stability in rat plasma = settings: after 4 hours, 37° C.
HDAC7 = HDAC7 (Homo sapiens (Human), UniProt Q8WUI4); test: Enzymatic screening, HDAC7 inhibition; format: biochemical
HDAC7, sequence (Q8WUI4 whole entry): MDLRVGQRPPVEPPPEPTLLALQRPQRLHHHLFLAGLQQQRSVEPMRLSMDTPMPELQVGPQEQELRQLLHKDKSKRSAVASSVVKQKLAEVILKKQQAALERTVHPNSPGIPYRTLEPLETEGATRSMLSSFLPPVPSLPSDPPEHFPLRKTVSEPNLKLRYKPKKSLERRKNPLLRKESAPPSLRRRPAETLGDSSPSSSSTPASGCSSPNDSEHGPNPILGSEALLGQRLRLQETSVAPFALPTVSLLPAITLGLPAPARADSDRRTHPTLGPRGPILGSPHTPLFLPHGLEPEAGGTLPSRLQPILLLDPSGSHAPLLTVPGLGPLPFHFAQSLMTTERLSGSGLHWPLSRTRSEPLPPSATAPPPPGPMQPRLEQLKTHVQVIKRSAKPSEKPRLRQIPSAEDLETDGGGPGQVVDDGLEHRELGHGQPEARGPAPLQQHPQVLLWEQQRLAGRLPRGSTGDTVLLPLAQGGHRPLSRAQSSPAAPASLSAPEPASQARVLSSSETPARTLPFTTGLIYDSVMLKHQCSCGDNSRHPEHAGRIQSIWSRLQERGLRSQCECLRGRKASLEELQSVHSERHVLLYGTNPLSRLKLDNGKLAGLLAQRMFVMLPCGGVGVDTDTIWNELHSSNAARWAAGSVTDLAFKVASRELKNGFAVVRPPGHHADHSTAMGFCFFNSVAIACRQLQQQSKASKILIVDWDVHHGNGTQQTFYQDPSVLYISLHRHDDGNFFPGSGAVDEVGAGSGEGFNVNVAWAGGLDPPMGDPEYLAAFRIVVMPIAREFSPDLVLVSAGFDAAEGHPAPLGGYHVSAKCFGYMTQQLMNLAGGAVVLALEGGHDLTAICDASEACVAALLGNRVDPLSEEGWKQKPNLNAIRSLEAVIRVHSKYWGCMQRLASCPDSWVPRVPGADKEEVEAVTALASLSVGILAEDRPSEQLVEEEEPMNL
Procedure: as §1

HDAC3 = HDAC3 (Homo sapiens (Human), UniProt O15379); test: Enzymatic screening, HDAC3 inhibition; format: biochemical
Procedure: as §1

HDAC10 = HDAC10 (Homo sapiens (Human), UniProt Q969S8); test: Enzymatic screening, HDAC10 inhibition; format: biochemical
Procedure: as §1

HDAC9 = HDAC9 (Homo sapiens (Human), UniProt Q9UKV0); test: Enzymatic screening, HDAC9 inhibition; format: biochemical
Procedure: as §1

HDAC5 = HDAC5 (Homo sapiens (Human), UniProt Q9UQL6); test: Enzymatic screening, HDAC5 inhibition; format: biochemical
Procedure: as §1

[4] = test system: α-tubulin acetylation in 697 cell line; test: In vitro α-tubulin acetylation in 697 cell line (ELISA); format: cell-based; settings: 16 hours, read-out: fold increase @ 1 uM TubAc (ratio of acetylated tubulin and total tubulin towards control)
Procedure: The in vitro α-tubulin acetylation determination was evaluated on B 697 promyelocytic cell line.
The test molecules were diluted from 20 mM stock solution in DMSO with RPMI 10% FCS+0.01% DMSO medium at 20× concentration compared to the final concentration, added to the cells (15×10^6 cells in a total volume of 30 mL in RPMI medium 10% FCS+0.01% DMSO) to obtain the final concentrations of 1000, 333, 111, 37 nM and incubated at 37° C., 5% CO2 for 16 hours.
At the end of the incubation period, 5×10^6 cells were taken from each sample, centrifuged for 5 minutes at 1100 rpm and washed in 0.9% NaCl at 4° C. The resulting pellet was lysed by treating at 4° C. for 30 minutes with 150 μl of Complete Lysis-M buffer containing protease inhibitors (Complete Lysis-M Roche+Complete Tablets, Mini Easypack, cat: 4719956001) and phosphatase inhibitor cocktails (PhosStop Easypack, Roche, cat: 4906837001), then centrifuged 10 minutes at 14,000 rpm (20817×g). 0.3 μg of supernatant (total protein extract) were diluted in 100 μl of 1×PBS and immobilized in Maxisorp F96 NUN-IMMUNO Plate (Nunc MaxiSorp flat-bottom, Nunc, cat: 442404) at room temperature overnight. Plates were washed twice with Wash Buffer (PBS1×+0.005% tween 20) and saturated for 1 hour at room temperature with 300 μL of 1×PBS containing 10% FCS. After washing twice with Wash Buffer, the plates were incubated for two hours at room temperature in the presence of anti-acetylated-α-tubulin antibody (Monoclonal Anti-acetylated-tubulin clone 6-11B-1, mouse ascites fluid, Sigma, cat: T6793), 100 μl/well diluted 1:1000 in 1×PBS containing 10% FCS) or with total anti-α-tubulin antibody (Monoclonal Anti-alpha-tubulin produced in mouse, Sigma, cat: T6074). Following washing of the pates 5 times with Wash Buffer the secondary antibody conjugated with the enzyme HRP (Goat anti-Mouse IgG, IgM, IgA (H+L), Thermo Fisher Scientific, cat: A10668), diluted 1:1000 in 1×PBS+10% FBS was added at the volume of 100 μl/well.
After washing 4 times, 100 μl/well of TMB substrate kit was added for 10 minutes at room temperature in the dark. The reaction was stopped by adding 50 μl of 2N H2SO4. The plates were read at Multiskan Spectrum spectrophotometer at a wavelength of 450 nm.
The degree of acetylation was calculated by dividing the absorbance obtained for acetylated α-tubulin by the absorbance of total tubulin.
The results of tubulin acetylation, expressed as fold increase of ratio of acetylated α-tubulin/total α-tubulin, of each sample relative to the control sample (untreated) are summarized in table 6.

HDAC4 = HDAC4 (Homo sapiens (Human), UniProt P56524); test: Enzymatic screening, HDAC4 inhibition; format: biochemical
HDAC4, sequence (P56524 whole entry): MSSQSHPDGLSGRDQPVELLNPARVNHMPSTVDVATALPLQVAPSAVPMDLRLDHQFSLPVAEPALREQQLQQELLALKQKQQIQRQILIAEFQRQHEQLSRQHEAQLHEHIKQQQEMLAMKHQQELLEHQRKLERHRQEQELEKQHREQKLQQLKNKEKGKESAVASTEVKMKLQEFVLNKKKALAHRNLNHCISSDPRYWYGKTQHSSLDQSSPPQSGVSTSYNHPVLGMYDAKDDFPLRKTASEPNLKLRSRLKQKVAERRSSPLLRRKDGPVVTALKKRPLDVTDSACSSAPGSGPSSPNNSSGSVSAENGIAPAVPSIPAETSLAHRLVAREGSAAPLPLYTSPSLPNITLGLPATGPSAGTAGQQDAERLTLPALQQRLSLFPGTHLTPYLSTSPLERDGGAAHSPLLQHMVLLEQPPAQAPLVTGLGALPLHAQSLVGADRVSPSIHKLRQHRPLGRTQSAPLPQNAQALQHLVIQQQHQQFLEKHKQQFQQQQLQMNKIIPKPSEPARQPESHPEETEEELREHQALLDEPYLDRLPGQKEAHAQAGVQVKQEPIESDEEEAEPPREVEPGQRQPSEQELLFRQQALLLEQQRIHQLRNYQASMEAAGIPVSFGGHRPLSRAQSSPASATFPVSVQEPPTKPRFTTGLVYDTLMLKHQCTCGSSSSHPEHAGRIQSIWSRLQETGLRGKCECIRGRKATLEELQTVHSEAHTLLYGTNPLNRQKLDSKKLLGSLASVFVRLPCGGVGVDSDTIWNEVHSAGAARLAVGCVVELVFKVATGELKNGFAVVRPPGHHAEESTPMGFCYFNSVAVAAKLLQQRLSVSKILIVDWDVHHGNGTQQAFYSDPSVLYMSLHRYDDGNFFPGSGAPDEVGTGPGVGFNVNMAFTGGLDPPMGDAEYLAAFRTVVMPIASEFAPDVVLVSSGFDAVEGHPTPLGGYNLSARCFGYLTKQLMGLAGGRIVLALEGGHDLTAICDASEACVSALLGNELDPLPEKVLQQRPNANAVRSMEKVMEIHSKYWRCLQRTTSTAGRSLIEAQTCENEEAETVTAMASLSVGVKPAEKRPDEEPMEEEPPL
Procedure: as §1

recombinant human HDAC6 = recombinant human HDAC6 (Homo sapiens (Human), UniProt Q9UBN7); test: Enzymatic screening, HDAC6 inhibition (fluorogenic FdL_G substrate); format: biochemical
recombinant human HDAC6, sequence (Q9UBN7 whole entry): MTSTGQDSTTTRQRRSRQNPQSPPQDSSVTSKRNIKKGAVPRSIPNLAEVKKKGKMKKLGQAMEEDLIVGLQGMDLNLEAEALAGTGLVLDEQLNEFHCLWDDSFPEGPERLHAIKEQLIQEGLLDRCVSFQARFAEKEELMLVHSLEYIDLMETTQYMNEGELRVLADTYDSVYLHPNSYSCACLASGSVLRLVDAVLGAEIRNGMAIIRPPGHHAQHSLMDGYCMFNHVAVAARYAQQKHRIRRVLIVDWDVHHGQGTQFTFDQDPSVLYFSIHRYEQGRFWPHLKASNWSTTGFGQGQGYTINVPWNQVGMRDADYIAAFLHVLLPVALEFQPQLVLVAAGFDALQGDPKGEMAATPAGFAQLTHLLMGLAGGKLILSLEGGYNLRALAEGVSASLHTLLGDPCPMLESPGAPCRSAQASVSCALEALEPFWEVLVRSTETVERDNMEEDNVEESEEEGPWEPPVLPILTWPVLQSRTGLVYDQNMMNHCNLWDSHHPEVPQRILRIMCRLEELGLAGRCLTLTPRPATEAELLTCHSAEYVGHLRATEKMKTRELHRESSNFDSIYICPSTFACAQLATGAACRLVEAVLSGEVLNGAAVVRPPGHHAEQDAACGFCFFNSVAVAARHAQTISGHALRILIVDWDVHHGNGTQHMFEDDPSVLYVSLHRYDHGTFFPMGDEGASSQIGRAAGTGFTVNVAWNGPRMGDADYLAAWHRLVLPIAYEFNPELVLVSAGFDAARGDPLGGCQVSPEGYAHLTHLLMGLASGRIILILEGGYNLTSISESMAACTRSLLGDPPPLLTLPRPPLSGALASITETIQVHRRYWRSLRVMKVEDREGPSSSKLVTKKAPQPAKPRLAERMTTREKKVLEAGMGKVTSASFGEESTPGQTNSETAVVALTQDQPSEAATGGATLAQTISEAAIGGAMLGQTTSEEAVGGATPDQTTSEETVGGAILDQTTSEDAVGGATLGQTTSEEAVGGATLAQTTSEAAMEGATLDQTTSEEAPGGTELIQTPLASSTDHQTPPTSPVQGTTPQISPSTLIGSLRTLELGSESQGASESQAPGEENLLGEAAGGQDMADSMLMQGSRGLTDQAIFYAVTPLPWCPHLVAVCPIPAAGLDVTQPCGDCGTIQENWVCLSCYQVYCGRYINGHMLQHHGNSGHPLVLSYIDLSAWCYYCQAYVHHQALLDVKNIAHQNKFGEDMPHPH
In short: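 Enzyme was preincubated with compound (8 doses, triplicate, 1% DMSO) in 25 mM Tris-HCl pH 8, 130 mM NaCl, 0.05% Tween-20, 10% glycerol, with BSA. A FLUOR DE LYS-Green substrate was then added, and fluorescence was read after developer plus 2 μM TSA.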

HDAC2 = HDAC2 (Homo sapiens (Human), UniProt Q92769); test: Enzymatic screening, HDAC2 inhibition; format: biochemical
HDAC2, sequence (Q92769 whole entry): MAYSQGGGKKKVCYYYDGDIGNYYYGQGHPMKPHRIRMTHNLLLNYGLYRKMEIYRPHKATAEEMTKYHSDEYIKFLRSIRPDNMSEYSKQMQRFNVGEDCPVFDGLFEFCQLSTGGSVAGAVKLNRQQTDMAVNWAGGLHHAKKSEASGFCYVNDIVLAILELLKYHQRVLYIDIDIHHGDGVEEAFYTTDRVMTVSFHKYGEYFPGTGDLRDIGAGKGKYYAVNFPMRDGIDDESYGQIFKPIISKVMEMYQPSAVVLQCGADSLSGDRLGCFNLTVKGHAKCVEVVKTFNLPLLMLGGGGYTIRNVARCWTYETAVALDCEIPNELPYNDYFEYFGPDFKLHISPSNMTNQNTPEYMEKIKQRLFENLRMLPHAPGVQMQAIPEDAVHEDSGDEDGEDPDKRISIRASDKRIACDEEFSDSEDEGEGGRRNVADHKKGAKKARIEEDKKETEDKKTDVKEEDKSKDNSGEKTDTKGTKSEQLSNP
Procedure: as §1

Row | Compound | residual percentage in RAT S9 FRACTION [1] [%] | residual percentage in HUMAN PLASMA [2] [%] | residual percentage in HUMAN S9 FRACTION [3] [%] | IC50 (HDAC11) [µM] | IC50 (HDAC8) [µM] | IC50 (recombinant human HDAC1) [µM] | residual percentage in RAT PLASMA (Stability in rat plasma) [%] | IC50 (HDAC7) [µM] | IC50 (HDAC3) [µM] | IC50 (HDAC10) [µM] | IC50 (HDAC9) [µM] | IC50 (HDAC5) [µM] | IC50 (HDAC4) [µM] | IC50 (recombinant human HDAC6) [µM] | IC50 (HDAC2) [µM] | fold induction at 1 µM [4]
1 | O=C(Nc1cc(-c2nnn(Cc3ccc(-c4nnc(C(F)F)o4)cn3)n2)ccc1O)N1CCOCC1 [compound 2, N-(5-(2-((5-(5-(difluoromethyl)-1,3,4-oxadiazol-2-yl)pyridin-2-yl)methyl)-2H-tetrazol-5-yl)-2-hydroxyphenyl)morpholine-4-carboxamide] | 61 | 87 | 70 | > 30 | > 200 | > 200 | 90 | > 30 | > 30 | > 30 | > 30 | > 30 | > 30 | 0.01 | > 30 | 26
2 | Nc1nc2cc(-c3cn(Cc4ccc(-c5nnc(C(F)F)o5)cc4)nn3)ccc2[nH]1 [Compd. 8, 5-(1-(4-(5-(difluoromethyl)-1,3,4-oxadiazol-2-yl)benzyl)-1H-1,2,3-triazol-4-yl)-1H-benzo[d]imidazol-2-amine] | 94 | 99 | 95 | > 30 | > 200 | > 200 | 76 | > 30 | > 30 | > 30 | > 30 | > 30 | > 30 | 0.014 | > 30 | 10
3 | O=C(Nc1cccc(-c2cn(Cc3ccc(-c4nnc(C(F)F)o4)c(F)c3)nn2)c1)N1CCOCC1 [compound 16, N-(3-(1-(4-(5-(difluoromethyl)-1,3,4-oxadiazol-2-yl)-3-fluorobenzyl)-1H-1,2,3-triazol-4-yl)phenyl)morpholine-4-carboxamide] | 88 | 75 | 86 | > 30 | > 200 | > 200 | 84 | > 30 | > 30 | > 30 | > 30 | > 30 | > 30 | 0.029 | > 30 | 19

More lines, main results first:

Row | residual percentage in RAT S9 FRACTION [1] [%] | residual percentage in HUMAN PLASMA [2] [%] | residual percentage in HUMAN S9 FRACTION [3] [%] | IC50 (HDAC11) [µM] | IC50 (HDAC8) [µM] | IC50 (recombinant human HDAC1) [µM] | residual percentage in RAT PLASMA (Stability in rat plasma) [%] | IC50 (HDAC7) [µM] | IC50 (HDAC3) [µM] | IC50 (HDAC10) [µM] | IC50 (HDAC9) [µM] | IC50 (HDAC5) [µM] | IC50 (HDAC4) [µM] | IC50 (recombinant human HDAC6) [µM] | IC50 (HDAC2) [µM] | Compound | fold induction at 1 µM [4]
4 | 98 | 78 | 97 | > 30 | 197 | > 200 | 75 | > 30 | > 30 | > 30 | > 30 | > 30 | > 30 | 0.023 | > 30 | Nc1ccc(-c2cnn(Cc3ccc(-c4nnc(C(F)F)o4)cn3)c2)cn1 [compound 13, 5-(1-((5-(5-(difluoromethyl)-1,3,4-oxadiazol-2-yl)pyridin-2-yl)methyl)-1H-pyrazol-4-yl)pyridin-2-amine] | 16
5 | 77 | 80 | 77 | > 30 | > 200 | > 200 | 78 | > 30 | > 30 | > 30 | > 30 | > 30 | > 30 | 0.012 | > 30 | O=C1NCc2ccc(-c3nnn(Cc4ccc(-c5nnc(C(F)F)o5)cn4)n3)cc21 [compound 4, 6-(2-((5-(5-(difluoromethyl)-1,3,4-oxadiazol-2-yl)pyridin-2-yl)methyl)-2H-tetrazol-5-yl)isoindolin-1-one] | 13
6 | 90 | 59 | 83 | > 30 | 1.41 | > 200 | 87 | 3.08 | > 30 | > 30 | 0.971 | 1.51 | 5.01 | 0.015 | > 30 | FC(F)c1nnc(-c2ccc(Cn3cc(-c4ccc5nc(Cl)[nH]c5c4)nn3)nc2)o1 [Compd. 9, 2-(6-((4-(2-chloro-1H-benzo[d]imidazol-6-yl)-1H-1,2,3-triazol-1-yl)methyl)pyridin-3-yl)-5-(difluoromethyl)-1,3,4-oxadiazole] | 17
7 | 90 | 83 | 70 | > 30 | > 200 | > 200 | 86 | > 30 | > 30 | > 30 | > 30 | > 30 | > 30 | 0.019 | > 30 | Cn1c(N)nc2cc(-c3nnn(Cc4ccc(-c5nnc(C(F)F)o5)cc4)n3)ccc21 [compound 11, 5-(2-(4-(5-(difluoromethyl)-1,3,4-oxadiazol-2-yl)benzyl)-2H-tetrazol-5-yl)-1-methyl-1H-benzo[d]imidazol-2-amine] | 18
